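Exposure lasted 48 hours, with cells grown in 96-well plates and compounds tested at five concentrations. Abbreviation: GI50, concentration required for 50% inhibition of growth. TGI denotes the concentration required for complete inhibition of growth.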 Where a SMILES comes first, the peptide text is derived from it. The star is where a group is joined. Boc = CC(C)(C)OC(=O)*
Experiments:
Assay in all cases: NCI tumour cell line growth inhibition, 48 h
LOX IMVI melanoma = system: LOX IMVI melanoma
RXF 393 renal = system: RXF 393 renal
SF-295 CNS = system: SF-295 CNS
MDA-MB-435 = system: MDA-MB-435
NCI-H23 lung = system: NCI-H23 lung
MOLT-4 leukemia = system: MOLT-4 leukemia
SNB-19 CNS = system: SNB-19 CNS
A549 NSCLC = system: A549 NSCLC
SK-MEL-2 melanoma = system: SK-MEL-2 melanoma

| SMILES | TGI (LOX IMVI melanoma) | TGI (RXF 393 renal) | TGI (SF-295 CNS) | TGI (MDA-MB-435) | TGI (NCI-H23 lung) | TGI (MOLT-4 leukemia) | TGI (SNB-19 CNS) | TGI (A549 NSCLC) | TGI (SK-MEL-2 melanoma) | GI50 (LOX IMVI melanoma) | GI50 (RXF 393 renal) | GI50 (SF-295 CNS) | GI50 (MDA-MB-435) | GI50 (NCI-H23 lung) | GI50 (SNB-19 CNS) | GI50 (A549 NSCLC) | GI50 (SK-MEL-2 melanoma) |
| --- | --- | --- | --- | --- | --- | --- | --- | --- | --- | --- | --- | --- | --- | --- | --- | --- | --- |
| O=S(=O)(O)c1ccc2c(N=Nc3ccccc3Cl)c(O)ccc2c1 | > 100 µM | > 100 µM | > 100 µM | > 100 µM | > 100 µM | > 100 µM | > 100 µM | > 100 µM | > 100 µM | – | – | – | – | – | – | – | – |
| Cc1ccc(O)c(-c2csc(NCN3CCN(CNc4nc(-c5cc(C)ccc5O)cs4)CC3)n2)c1 | > 100 µM | > 100 µM | > 100 µM | > 100 µM | > 100 µM | > 100 µM | > 100 µM | > 100 µM | > 100 µM | – | – | – | – | – | – | – | – |
| NC12CC3CC4C1CC1CC2C(C3)C4(N)C1 | > 100 µM | > 100 µM | > 100 µM | > 100 µM | > 100 µM | > 100 µM | > 100 µM | > 100 µM | > 100 µM | – | – | – | – | – | – | – | – |
| COC(=O)c1ccc(CCc2cc(O)c(Br)cc2O)cc1 | 27.2 µM | 32.9 µM | 28 µM | 22.6 µM | 15.4 µM | 6.65 µM | 33.1 µM | 50.5 µM | 39.1 µM | – | – | – | – | – | – | – | – |
| CC(C)(C)OC(=O)NC(Cc1ccc(OCc2ccccc2)cn1)C(=O)N1CCSCC1 (centres undefined) | > 100 µM | 88.5 µM | > 100 µM | > 100 µM | > 100 µM | 59.1 µM | > 100 µM | > 100 µM | > 100 µM | – | – | – | – | – | – | – | – |
| COc1cc(/C=C/C(=O)N[C@@H]2C(=O)N3[C@@H]2SC(C)(C)[C@@H]3C(=O)O)cc(OC)c1OC | > 100 µM | > 100 µM | > 100 µM | > 100 µM | > 100 µM | > 100 µM | > 100 µM | > 100 µM | > 100 µM | – | – | – | – | – | – | – | – |
| Cc1ccc(S(=O)(=O)/N=C(\[O-])C2=C(c3ccccc3)NN(C)c3nc4cccc[n+]4nc32)cc1 | > 100 µM | > 100 µM | – | > 100 µM | > 100 µM | > 100 µM | > 100 µM | > 100 µM | > 100 µM | – | – | – | – | – | – | – | – |
| CCOC(=O)/C=C(\N=P(c1ccccc1)(c1ccccc1)c1ccccc1)C(F)(F)C(F)(F)C(F)(F)C(F)(F)C(F)(F)F | > 100 µM | > 100 µM | > 100 µM | > 100 µM | > 100 µM | > 100 µM | > 100 µM | > 100 µM | > 100 µM | – | – | – | – | – | – | – | – |
| COC(OC)(c1ccccc1)C(I)I | 32.4 µM | 10.4 µM | > 52.7 µM | 18 µM | 50.7 µM | > 49.8 µM | > 71 µM | 43.6 µM | 35.4 µM | – | – | – | – | – | – | – | – |
| O=c1c(-c2ccccc2Cl)coc2cc(F)ccc12 | 35.3 µM | > 100 µM | 48.6 µM | 4.31 µM | > 100 µM | > 100 µM | > 100 µM | > 100 µM | > 100 µM | – | – | – | – | – | – | – | – |
| CCc1n[nH]c(=O)n1NC(=O)c1ccccc1C(=O)O | > 100 µM | > 100 µM | > 100 µM | > 100 µM | > 100 µM | > 100 µM | > 100 µM | > 100 µM | > 100 µM | – | – | – | – | – | – | – | – |
| O=C(/C=C\Nc1ccccc1O)C(Cl)(Cl)Cl | > 100 µM | > 100 µM | 35.2 µM | 43.8 µM | > 100 µM | > 100 µM | > 100 µM | > 100 µM | > 100 µM | – | – | – | – | – | – | – | – |
| COC1(OC)C2(Cl)C(Cl)=C(Cl)C1(Cl)C1COCC12 (centres undefined) | > 100 µM | > 100 µM | > 100 µM | > 69.4 µM | > 71.2 µM | > 100 µM | > 100 µM | > 100 µM | > 100 µM | – | – | – | – | – | – | – | – |
| COc1ccc(Cl)cc1NC(=O)c1c(NC(=O)C(F)(F)C(F)(F)F)sc2c1CCCCC2 | > 100 µM | 5.28 µM | 3.73 µM | > 100 µM | 7.38 µM | – | > 100 µM | > 100 µM | 5.71 µM | 2.62 µM | 1.73 µM | 1.03 µM | 2.52 µM | 1.54 µM | 1.57 µM | 2.54 µM | 1.07 µM |
| CC(=O)N1N=C(N)CC1=O | > 100 µM | > 100 µM | > 100 µM | > 100 µM | > 100 µM | > 100 µM | > 100 µM | > 100 µM | > 100 µM | – | – | – | – | – | – | – | – |
| CCOCC(NC(=O)C(CC(C)C)NC(=O)OC(C)(C)C)C(N)=O (stereo not drawn) (Boc-Leu-Ser(Et)-NH2; configuration not given here) | > 100 µM | > 100 µM | > 100 µM | > 100 µM | > 100 µM | > 100 µM | > 100 µM | > 100 µM | > 100 µM | – | – | – | – | – | – | – | – |
| O=C(N/N=C\c1ccc([N+](=O)[O-])cc1)Nc1cccc2ccccc12 | > 62.2 µM | 34.5 µM | 22.6 µM | > 100 µM | 61.9 µM | > 100 µM | 29.4 µM | > 100 µM | 23.9 µM | – | – | – | – | – | – | – | – |
| Nn1c(SCC(=O)NCc2ccccc2)nc2ccccc2c1=O | > 100 µM | > 100 µM | > 100 µM | > 100 µM | > 100 µM | 49.5 µM | > 100 µM | > 100 µM | > 100 µM | – | – | – | – | – | – | – | – |
| CSc1ccc(/C=C2\N=C(c3ccccc3)N(c3nc4c(Cl)cc(Cl)cc4s3)C2=O)cc1 | 82.1 µM | 67.5 µM | 79.7 µM | 43.2 µM | – | 49.5 µM | > 100 µM | 53.4 µM | 41.4 µM | – | – | – | – | – | – | – | – |
| CC(NC(=O)C(N)CC(=O)O)NC(=O)N1CCOCC1 (centres undefined) | > 100 µM | > 100 µM | > 100 µM | > 100 µM | > 100 µM | > 100 µM | > 100 µM | > 100 µM | > 100 µM | – | – | – | – | – | – | – | – |
| CC1(C)C(=O)C2(OS(=O)(=O)C(F)(F)F)CCC1C2 (centres undefined) | > 100 µM | > 100 µM | > 100 µM | > 100 µM | > 100 µM | > 100 µM | > 100 µM | > 100 µM | > 100 µM | – | – | – | – | – | – | – | – |

— PubChem BioAssay (NCI)
